Results: patent publication US7968526B2, “Antisense oligonucleotides directed to ribonucleotide reductase R2 and uses thereof in the treatment of cancer” (Lorus Therapeutics Inc., priority 2003, dated 2011)
“Also recorded” adds a separate entry of the source.

Legend:
[1] = tested on: human Burkitt's lymphoma (Raji) cells; experiment: Survival of SCID mice bearing human Burkitt's lymphoma (Raji); assay type: in vivo, human cells in mice
Description: Mice with established human Burkitt's lymphoma tumours were treated every second day with either saline or SEQ ID NO:1 for 44 days as described above. The control group mice all died from disease progression by day 20. At day 44, the SEQ ID NO:1 mice continued treatment on a weekly basis until stopping the treatment at day 73.
As an additional test of efficacy SEQ ID NO:1 was administered to SCID mice bearing active Burkitt's lymphoma (FIG. 30). Viable human Burkitt's lymphoma (Raji) cells (5×10^6) collected from subconfluent logarithmically growing cultures were injected i.v. into each animal and disease was allowed to establish for 2 days. SEQ ID NO:1, SEQ ID NO:3 and SEQ ID NO:2, in normal saline were administered by tail vein injection every second day at a dose of 10 mg/kg. At day 40 the treatment schedule was reduced to 10 mg/kg every 3 days. Control animals received saline alone, without oligonucleotide. Survival is presented as a percentage of the starting number of mice over time.

[2] = tested on: Hep G2 human liver cancer cells; experiment: HepG2 liver tumour growth in CD-1 nude mice (3.7); assay type: in vivo, human cells in mice
Description: Treatments lasted for 14 days thereafter. Antitumour activities were estimated by the inhibition of tumour volume, which was measured with a caliper on four different occasions over the treatment period. Each point represents mean tumour volume calculated from 5 animals per experimental group. […] Control animals (control) received saline alone for the same period. At the end of the treatments, the animals were sacrificed, tumours were excised and their weights were measured. Each bar represents mean tumour weight calculated from 6 animals per experimental group. […] Treatments lasted for 24 days thereafter. Antitumour activities were estimated by the inhibition of tumour volume, which was measured with a caliper at two-day intervals over the treatment period. Each point represents mean tumour volume calculated from 4 animals per experimental group. […] Treatments lasted for 24 days thereafter. Antitumour activities were estimated by the inhibition of tumour volume, which was measured with a caliper at two-day intervals over the treatment period. Each point represents mean tumour volume calculated from 4 animals per experimental group. […] Treatments lasted for 22 days thereafter. […] Each point represents mean tumour volume calculated from 5 animals per experimental group. […] Treatments lasted for 14 days thereafter. Antitumour activities were estimated by the inhibition of tumour volume, which was measured with a caliper on four different occasions over 16-day period. Each point represents mean tumour volume calculated from 5 animals per experimental group. […] Two different batches of SEQ ID NO:1, synthesized at different times (designated as batch 1 and batch 2), were tested to detect possible batch-specific effects. […] Treatments lasted for 34 days thereafter. Antitumour activities were estimated by the inhibition of tumour volume, which was measured with a caliper at two-day intervals over the treatment period. Each point represents mean tumour volume calculated from 5 animals per experimental group. […] Treatments lasted for 30 days thereafter. Antitumour activities were estimated by the inhibition of tumour volume, which was measured with a caliper at various time intervals over the span of 30 days. Each point represents mean tumour volume calculated from 6 animals per experimental group. […] All treatments were stopped at day 36. Antitumour activities were estimated by the inhibition of tumour volume, which was measured with a caliper. Each point represents mean tumour volume calculated from 5 animals per experimental group. […] All treatments were stopped at day 52. […] Antitumour activities were estimated by the inhibition of tumour volume, which was measured with a caliper.

[3] = tested on: MDA-MB435-To.1 human Taxol-resistant breast adenocarcinoma cells; experiment: MDA-MB435-To.1 Taxol-resistant breast adenocarcinoma, fat pad, CB-17 SCID mice, combination with Cisplatin (2.6); assay type: in vivo, human cells in mice; conditions: SEQ ID NO:1 10 mg/kg i.v. every other day
Description: BxPC-3 is a gemcitabine resistant call line. […] Gemcitabine was administered intravenously every three days at a dose of 100 mg/kg. Antitumour activities were estimated by the inhibition of tumour volume, which was measured with caliper. Each point represents mean tumour volume calculated from 10 animals per experimental group. […] Hela S3 is a hydroxyurea resistant cell line. […] Hydroxyurea was administered intraperitoneally every day at a dose of 250 mg/kg for 10 days. Cisplatin was administered intravenously once a week for three weeks at a dose of 4 mg/kg. Antitumour activities were estimated by the inhibition of tumour volume, which was measured with caliper. Each point represents mean tumour volume calculated from 10 animals per experimental group. […] Cisplatin was administered intravenously once a week for three weeks at a dose of 4 mg/kg. Taxol was administered intravenously once a week for three weeks at a dose of 10 mg/kg. Antitumour activities were estimated by the inhibition of tumour volume, which was measured with caliper. Each point represents mean tumour volume calculated from 10 animals per experimental group. […] Taxol was administered i.p. once a week at a dose of 10 mg/kg. Antitumour activities were estimated by the inhibition of tumour volume (FIG. 12A), which was measured with calipers. Each point represents mean tumour volume calculated from 10 animals per experimental group. […] Antitumour activities were estimated by the inhibition of tumour volume, which was measured with caliper. Each point represents mean tumour volume calculated from 9-10 animals per experimental group. […] Antitumour activities were estimated by the inhibition of tumour volume, which was measured with caliper. Each point represents mean tumour volume calculated from 10 animals per experimental group. […] Anti-tumour activity was estimated by the inhibition of tumour volume, which was measured with caliper. Each point represents mean tumour volume calculated from 10 animals per experimental group. […] Antitumour activities were estimated by the inhibition of tumour volume, which was measured with caliper. […]

[4] = tested on: HeLa S3 human cervical cancer cells; experiment: HeLa S3 cervical tumour growth in SCID mice (3.11); assay type: in vivo, human cells in mice
Description: Treatments lasted for 14 days thereafter. Antitumour activities were estimated by the inhibition of tumour volume, which was measured with a caliper on four different occasions over the treatment period. Each point represents mean tumour volume calculated from 5 animals per experimental group. […] Control animals (control) received saline alone for the same period. At the end of the treatments, the animals were sacrificed, tumours were excised and their weights were measured. Each bar represents mean tumour weight calculated from 6 animals per experimental group. […] Treatments lasted for 24 days thereafter. Antitumour activities were estimated by the inhibition of tumour volume, which was measured with a caliper at two-day intervals over the treatment period. Each point represents mean tumour volume calculated from 4 animals per experimental group. […] Treatments lasted for 24 days thereafter. Antitumour activities were estimated by the inhibition of tumour volume, which was measured with a caliper at two-day intervals over the treatment period. Each point represents mean tumour volume calculated from 4 animals per experimental group. […] Each point represents mean tumour volume calculated from 5 animals per experimental group. […] Antitumour activities were estimated by the inhibition of tumour volume, which was measured with a caliper on four different occasions over 16-day period. Each point represents mean tumour volume calculated from 5 animals per experimental group. […] Antitumour activities were estimated by the inhibition of tumour volume, which was measured with a caliper at two-day intervals over the treatment period. Each point represents mean tumour volume calculated from 5 animals per experimental group. […] Antitumour activities were estimated by the inhibition of tumour volume, which was measured with a caliper at various time intervals over the span of 30 days. Each point represents mean tumour volume calculated from 6 animals per experimental group. […] Antitumour activities were estimated by the inhibition of tumour volume, which was measured with a caliper. […]

[5] = tested on: human whole blood; experiment: Intravenous compatibility assay (haemolysis); assay type: cell-based; conditions: static or dynamic conditions
[6] = Human Cervical Carcinoma^2 in SCID mice, Day 17 after tumour implantation

## 5′-GGCTAAATCGCTCCACCAAG-3′ (all phosphorothioate, sugars by position and methylation of C not given here) [SEQ ID NO: 1, fully phosphorothioated antisense oligonucleotide that hybridizes to the coding region of R2 mRNA]
[1]; SCID mice (Example 7, FIG. 30), 10 mg/kg i.v. every second day, from day 40 every 3 days, 10 mg/kg
  Survival of mice: survived to the end of the study; also recorded: dramatic increase in survival time of mice well beyond the treatment period
[1]; SCID mice, 10 mg/kg i.v. every second day, stopped at day 42, sacrificed day 73, untreated all died within 23 days
  Survival of mice: survived beyond day 73 except one mouse, which died at day 69
[1]; second independent study, every second day for 44 days then weekly until day 73, controls all died by day 20
  Survival of mice: All mice survived to the end of the experimental period (140 days)
[2]; Hep G2, CD-1 nude mice, 2.5 mg/kg i.v. every day, 30 days
  Inhibitory effect on tumour growth (tumour volume, FIG. 20): significant inhibitory effects on the growth of human hepatoma cells
[2]; Human Liver Carcinoma
  Inhibition of tumour weight: ~65%
[2]; Human Liver Carcinoma in CD-1 nude mice, Day 30 after tumour implantation
  Inhibition of tumour size: Inhibition of tumour size by 45% in CD-1 nude
[3]; MDA-MB435-To.1 (breast), Taxol resistant, CB-17/SCID, Cisplatin 4 mg/kg i.v. weekly x4
  Tumour weight as % of saline control: 37%
[3]; MDA-MB435-To.1 Taxol-resistant, CB-17 SCID mice, Cisplatin 4 mg/kg i.v. weekly
  Antitumour effect (FIG. 14): significant reduction of tumour weight compared to saline control; also recorded: superior to the inhibitory effects observed with Cisplatin
[4]; HeLa S3, SCID mice, 10 mg/kg i.v. every other day, 14 days
  Inhibitory effect on tumour growth (tumour volume and weight, FIG. 23): strong inhibitory effects on the growth of human cervical carcinoma
[4]; [6]
  Inhibition of tumour size: approximately 60% in SCID mice on Day 17fter
  Inhibition of tumour weight: approximately 60% in SCID mice on Day 17fter
[5]
  Haemolytic activity (cell lysis and haemoglobin release): did not cause haemolysis under static or dynamic conditions
